According to patent publication US20240376062A1, “COMPOUNDS FOR THE TREATMENT OF ALZHEIMER’S DISEASE” (BOARD OF TRUSTEES OF MICHIGAN STATE UNIVERSITY, priority 2021, published 2024):
Entries after “also recorded” stand apart in the source; their conditions may differ.

How the values were obtained:
p-tau [1] = target: T1, p-tau (Homo sapiens, UniProt P10636); test: Thioflavin-S (ThS) fluorescence assay of p-tau fibril formation; assay type: biochemical; settings: compound 100 μM, about 15x molar excess to p-tau
T1 construct: made in house
T1 sequence (P10636 1-412 isoform P10636-7): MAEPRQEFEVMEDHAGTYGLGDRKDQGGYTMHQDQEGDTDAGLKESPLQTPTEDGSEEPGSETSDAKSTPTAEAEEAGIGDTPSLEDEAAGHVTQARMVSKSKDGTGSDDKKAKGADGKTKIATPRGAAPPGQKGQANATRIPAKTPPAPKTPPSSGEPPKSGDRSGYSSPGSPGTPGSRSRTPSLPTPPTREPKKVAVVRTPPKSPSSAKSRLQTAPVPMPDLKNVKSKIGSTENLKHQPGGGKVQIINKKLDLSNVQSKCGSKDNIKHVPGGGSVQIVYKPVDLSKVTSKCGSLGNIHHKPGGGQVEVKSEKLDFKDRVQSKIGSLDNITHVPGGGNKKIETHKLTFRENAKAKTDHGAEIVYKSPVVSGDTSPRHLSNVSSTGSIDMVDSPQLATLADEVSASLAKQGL
Experimental: p-Tau from the stock solution of 1 mM was added to 20 mM Tris buffer (pH 7.4) with 1 mM DTT and transferred to a black microplate 384 well plate with flat bottom and medium binding (greiner bio-one, ref 784076). Each well contained a final volume of 10 μL with a peptide final concentration of 6 μM. Experiments in the presence of p-tau were initiated by adding a solution of ThS at a final concentration of 20 μM with different compounds. Final compound concentrations ranged from 25 to 100 μM. The background sample consisted of 0.1% DMSO in buffer without p-tau. The plate was sealed and read with the excitation and emission wavelengths set at 440 and 490 nm, respectively, with a Synergy HT multi-mode microplate reader (BioTek, Winooski, VT). Measurements were taken at 37° C. every 10 min for 16 hours. Samples were measured in three replicates and the experiments were repeated three times using different p-tau stock solutions. For each time point, arbitrary units of fluorescence were calculated from the mean values normalized against the maximum value in each completed assay. Arbitrarily, the maximum value (100%) for the fluorescence intensity was established for p-tau with 0.1% DMSO.
The structure of three newly synthesized small molecules representing the sulfonamide (JF-19-73), sulfonylurea (JF(Tr)-20-58), and urea (JF-19-43, JF(TT)-19-5) series are presented in FIG. 1. These molecules were assessed for their anti-aggregation and cytoprotection effects using biophysical methods and survival assays on human neuroblastoma SH-SY5Y cells, respectively. […] First, the formation of fibrils was monitored by measuring the fluorescence intensity of the dye thioflavin-S (ThS) with the excitation and emission wavelengths set at 440 and 490 nm. The fluorescent dye ThS specifically binds to the cross β-sheet structure of protein fibrils, providing a strong fluorescence emission.^[14] Since the fluorescence emission increases with fibrils formation, the kinetic process of fibrillization is routinely assessed using ThS fluorescence as the primary assays to screen for the candidate inhibitors. […]

p-tau [2] = target: T1, p-tau; test: Photo-induced cross-linking (PICUP) assay of p-tau oligomerization; assay type: biochemical; settings: for dose dependence of inhibition of p-tau oligomerization: dose response experiments, FIG. 3 lower panel (B); for inhibition of p-tau oligomer formation (cross-linking): p-tau 6 μM preincubated with compound 50 μM for 24 hours
Experimental: p-Tau was diluted in 10 mM phosphate buffer (pH 7.4) at a final concentration of 10 μM and preincubated with different compounds for 24 h prior cross-linking. Different compounds were added to the p-tau solution at a final concentration of 12.5, 25, or 50 μM. The control consisted of samples without Ru(bpy), light exposition, and without compound. The reaction buffer consisted of 300 μM Ru(bpy), 6 mM ammonium persulfate. Prior light exposure, p-tau was diluted to a final concentration of 6 μM. Cross-linking was induced by irradiation, for 3 s, at a final volume of 20 μL, with a 53 W (120 V) incandescent lamp installed in a homemade dark-box. After irradiation, 8.3 μL of Lammeli loading buffer was immediately added to the solution, followed by incubation at 95° C. for 10 min. The cross-linked samples were separated on a 10% SDS-Page gel and visualized by Coomassie blue staining.
(§1) To examine how JF-19-73 affected p-tau fibrillization, two approaches were taken. Firstly, we used the Photo-Induced Cross-linking of Unmodified Proteins (PICUP) assay to investigate p-tau oligomerization under the influence of JF19-73 (FIG. 3). After being subjected to short light exposure, p-tau was cross-linked and resolved as a smear of higher molecular weight (lane 3, FIG. 3).^[6c] […] We further perform transmission electron microscopy to visualize the extent and morphology of p-tau fibrils.

SH-SY5Y cells = test: Cell viability assay, protection from aggregated p-tau and compound toxicity; assay type: cell-based, human; settings: for protection of SH-SY5Y cells against p-tau cytotoxicity: 0.8 μM p-tau, compound 8 μM (molar ratio 1:10)
Experimental: Cells were maintained in a 37° C., 5% CO2 incubator, in exponential growth, for the duration of experimentation. For this assay, cells were seeded in 96-well microtiter plates at a density of 5×10^3 SH-SY5Y cells per well for 24 h. Compounds freshly solubilized in DMSO were diluted in culture medium and aliquots containing sequential dilution of drugs were added subsequently after stimulation with 2 μM of p-tau. p-Tau was dissolved and incubated in 10 mM PBS (pH 7.4, 25° C.) 24 h before addition to cells. Compounds were tested at 2, 4, and 8 μM and DMSO concentration was maintained at 0.1% to avoid growth inhibition. […] Plates were incubated for 24 h in the presence of compounds and p-Tau. Cell-based assays were performed as previously described ((Liu et al, 2020, Sci. Rep. Hyperphosphorylated tau aggregation and cytotoxicity modulators screen identified prescription drugs linked to Alzheimer's disease and cognitive functions. Liu M, Dexheimer T, Sui D, Hovde S, Deng X, Kwok R, Bochar D A, Kuo M H. Sci Rep. 2020 Oct. 6; 10(1):16551. doi: 10.1038/s41598-020-73680-2.). The cell viability was calculated from fluorescence measured with a Synergy HT multi-mode microplate reader (BioTek, Winooski, VT). The data from experiments conducted in triplicate were corrected for the background fluorescence of the medium and was expressed as the mean percentage of fluorescence obtained for control DMSO-treated cells. The growth inhibition percentage was calculated with reference to DMSO-treated cells for each compound concentration. The results were obtained from at least three separated experiments. The cell viability assay was considered valid when the variability among data for a given set of conditions, within the same experiment, was less than 10% with respect to the mean value. All values represent means±SD (n=3).
Cell viability assays were performed using SH-SY5Y cells to evaluate the potential of the molecules representing the sulfonamide, sulfonylurea, and urea series to protect cells from aggregated p-tau (FIG. 5). The survival rate was assessed after treatment with 0.8 μM p-tau in the absence or the presence of JF-19-73, JF-19-43 (urea), JF(TT)-20-58 at 8 μM. […] It has been reported previously (Liu et al, 2020, Sci. Rep. Hyperphosphorylated tau aggregation and cytotoxicity modulators screen identified prescription drugs linked to Alzheimer's disease and cognitive functions. Liu M, Dexheimer T, Sui D, Hovde S, Deng X, Kwok R, Bochar D A, Kuo M H. Sci Rep. 2020 Oct. 6; 10(1):16551. doi: 10.1038/s41598-020-73680-2.) that not all effective p-tau aggregation inhibitors, as indicated by significant reductions in ThSmax, were cytoprotective.

[3] = Solubility in aqueous phase; assay type: physicochemical
p-tau [4] = target: T1, p-tau; test: Transmission electron microscopy of p-tau fibrils; assay type: biochemical; settings: p-tau 20 μM, compound 100 μM, 24 hours, vs. DMSO
Experimental: […] A volume of 10 μL was applied on a 400-mesh Formvar-carbon-coated cooper grid (Electron Microscopy Sciences, Hatfield, PA) to confirm the presence or the absence of fibrils. The grids were incubated for 1 minute and washed three times with distilled water. They were carefully air-dried and incubated for 1 minute in a fresh solution of 1% uranyl acetate. Samples were air-dried and observed using a transmission microscope (JEOL 1400 Flash, Japan). Pictures were acquired at an accelerating voltage of 100 kV and magnification of 40 and 80 k.
as §1

Compound | inhibition of p-tau fibril formation (ThS fluorescence intensity, ThSmax) (p-tau [1]) | dose dependence of inhibition of p-tau oligomerization (p-tau [2]) | inhibition of p-tau oligomer formation (cross-linking) (p-tau [2]) | inhibition of p-tau oligomer formation (cross-linking) (p-tau [2]; listed as JF(T)-19-58) | protection of SH-SY5Y cells against p-tau cytotoxicity (SH-SY5Y cells) | toxicity of compound to SH-SY5Y cells (SH-SY5Y cells; compound 8 μM without p-tau) | protection against p-tau cytotoxicity, dose dependence (SH-SY5Y cells; compound 2, 4 and 8 μM) | solubility (S) in aqueous phase [3] [µM] | p-tau fibril formation by TEM (p-tau [4]) | inhibition of p-tau oligomer formation (cross-linking) (p-tau [2]; listed as JF19-43)
O=C(Nc1ccc(Cl)cc1)Nc1ccc2c(c1)Cc1ccccc1-2 [JF(NBMI)-20-45] | not a potent inhibitor of p-tau aggregation | – | – | – | – | – | – | – | – | –
O=C(Nc1ccccc1)Nc1ccc2c(c1)Cc1ccccc1-2 [JF(TT)-19-5] | – | negative control | had no effect | – | – | – | – | – | – | –
O=C(Nc1ccc2c(c1)Cc1ccccc1-2)NS(=O)(=O)c1ccc(Cl)cc1 [JF(TT)-20-58] | not a potent inhibitor of p-tau aggregation | – | high molecular weight p-tau oligomers | had no effect | negative controls | – | – | – | – | –
O=S(=O)(Nc1ccc2c(c1)Cc1ccccc1-2)c1ccc(Cl)cc1 [JF-19-73] | inhibits fibril; also recorded: most potent to inhibit fibril formation | dose-dependent manner | inhibits fibril (ThSmax) and oligomer (Oligo. Inh.) formation; also recorded: stopped formation of p-tau oligomers; also recorded: effectively prevented this crosslinking | – | protects SH-SY5Y cells against p-tau | non-toxic to cells | protected cell in a dose-dependent manner | > 100 | less fibrils; also recorded: clear effects on p-tau fibrillization | –
CCNC(=O)Nc1ccc2c(c1)Cc1ccccc1-2 [JF-19-43] | – | – | had no effect | – | negative controls | – | – | – | – | high molecular weight p-tau oligomers
